Measured values as given in ChEMBL document CHEMBL5291721, “A preclinical secondary pharmacology resource illuminates target-adverse drug reaction associations of marketed drugs” (Nat Commun, 2023).

Key:
Bile salt export pump = Bile salt export pump (Homo sapiens, UniProt O95342); type: functional
[1] = target: T1, Type-1 angiotensin II receptor (Homo sapiens, UniProt P30556)
T1 sequence (P30556 whole entry): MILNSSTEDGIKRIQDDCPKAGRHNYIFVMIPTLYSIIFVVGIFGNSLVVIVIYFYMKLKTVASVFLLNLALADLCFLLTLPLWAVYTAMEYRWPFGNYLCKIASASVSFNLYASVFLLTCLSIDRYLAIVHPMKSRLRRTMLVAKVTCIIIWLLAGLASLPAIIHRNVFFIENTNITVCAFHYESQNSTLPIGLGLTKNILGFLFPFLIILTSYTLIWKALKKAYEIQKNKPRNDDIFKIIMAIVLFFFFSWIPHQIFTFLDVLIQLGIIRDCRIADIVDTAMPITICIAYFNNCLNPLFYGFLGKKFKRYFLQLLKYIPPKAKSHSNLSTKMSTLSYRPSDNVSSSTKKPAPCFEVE

[2] = target: T2, Muscarinic acetylcholine receptor M2 (Homo sapiens, UniProt P08172); type: functional, cell-based
T2 sequence (P08172 whole entry): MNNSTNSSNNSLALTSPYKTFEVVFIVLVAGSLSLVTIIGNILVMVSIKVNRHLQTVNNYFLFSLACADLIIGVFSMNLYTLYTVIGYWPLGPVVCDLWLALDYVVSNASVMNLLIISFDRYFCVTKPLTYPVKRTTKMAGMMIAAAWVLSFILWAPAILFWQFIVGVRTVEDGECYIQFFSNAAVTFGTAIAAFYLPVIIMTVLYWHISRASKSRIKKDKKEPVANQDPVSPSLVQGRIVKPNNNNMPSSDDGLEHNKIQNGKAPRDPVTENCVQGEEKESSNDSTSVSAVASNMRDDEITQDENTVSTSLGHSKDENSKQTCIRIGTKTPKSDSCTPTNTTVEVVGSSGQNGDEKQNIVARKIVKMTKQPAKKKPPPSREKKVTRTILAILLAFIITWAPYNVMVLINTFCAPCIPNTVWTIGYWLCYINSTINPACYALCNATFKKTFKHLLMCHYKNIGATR

Adenosine receptor A1 = target: T3, Adenosine receptor A1 (Homo sapiens, UniProt P30542)
T3 sequence (P30542 whole entry): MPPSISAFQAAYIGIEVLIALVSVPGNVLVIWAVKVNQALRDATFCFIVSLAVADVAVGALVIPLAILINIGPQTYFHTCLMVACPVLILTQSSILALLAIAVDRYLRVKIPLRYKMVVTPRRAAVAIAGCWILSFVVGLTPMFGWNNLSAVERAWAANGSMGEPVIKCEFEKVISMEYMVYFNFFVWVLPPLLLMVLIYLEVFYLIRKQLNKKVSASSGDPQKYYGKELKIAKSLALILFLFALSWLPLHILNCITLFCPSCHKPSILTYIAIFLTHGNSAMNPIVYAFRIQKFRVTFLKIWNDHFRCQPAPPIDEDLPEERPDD

[3] = target: Sodium-dependent dopamine transporter (Homo sapiens, UniProt Q01959)
Chain of Sodium-dependent dopamine transporter (Q01959 whole entry): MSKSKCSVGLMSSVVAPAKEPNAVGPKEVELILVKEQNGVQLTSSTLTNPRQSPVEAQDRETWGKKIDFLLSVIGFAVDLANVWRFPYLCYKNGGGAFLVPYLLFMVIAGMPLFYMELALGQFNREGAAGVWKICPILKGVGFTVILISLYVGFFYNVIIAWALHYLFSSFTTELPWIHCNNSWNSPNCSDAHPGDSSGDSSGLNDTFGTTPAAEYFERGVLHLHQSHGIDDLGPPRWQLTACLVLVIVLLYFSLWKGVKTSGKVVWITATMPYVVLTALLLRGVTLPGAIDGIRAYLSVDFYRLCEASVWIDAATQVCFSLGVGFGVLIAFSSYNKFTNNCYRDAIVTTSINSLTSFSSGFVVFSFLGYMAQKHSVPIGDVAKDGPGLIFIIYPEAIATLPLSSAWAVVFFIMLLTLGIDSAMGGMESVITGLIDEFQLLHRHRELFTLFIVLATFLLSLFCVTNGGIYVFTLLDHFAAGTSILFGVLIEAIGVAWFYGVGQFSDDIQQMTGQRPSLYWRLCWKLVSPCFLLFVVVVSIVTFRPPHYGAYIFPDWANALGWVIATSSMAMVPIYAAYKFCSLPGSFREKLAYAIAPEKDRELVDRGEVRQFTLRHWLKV

Adenosine receptor A3 = target: T4, Adenosine receptor A3 (Homo sapiens, UniProt P0DMS8)
T4 sequence (P0DMS8 whole entry): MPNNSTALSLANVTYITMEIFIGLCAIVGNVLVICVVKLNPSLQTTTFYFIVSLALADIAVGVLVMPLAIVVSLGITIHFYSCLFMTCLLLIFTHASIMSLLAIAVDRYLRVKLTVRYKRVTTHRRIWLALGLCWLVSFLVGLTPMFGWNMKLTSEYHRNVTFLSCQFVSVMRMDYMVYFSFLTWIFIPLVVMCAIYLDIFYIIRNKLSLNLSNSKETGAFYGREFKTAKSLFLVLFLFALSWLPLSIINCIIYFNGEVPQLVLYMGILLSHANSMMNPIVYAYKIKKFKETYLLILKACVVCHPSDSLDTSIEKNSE

[4] = target: T5, Amine oxidase [flavin-containing] A (Homo sapiens, UniProt P21397); type: functional
T5 sequence (P21397 whole entry): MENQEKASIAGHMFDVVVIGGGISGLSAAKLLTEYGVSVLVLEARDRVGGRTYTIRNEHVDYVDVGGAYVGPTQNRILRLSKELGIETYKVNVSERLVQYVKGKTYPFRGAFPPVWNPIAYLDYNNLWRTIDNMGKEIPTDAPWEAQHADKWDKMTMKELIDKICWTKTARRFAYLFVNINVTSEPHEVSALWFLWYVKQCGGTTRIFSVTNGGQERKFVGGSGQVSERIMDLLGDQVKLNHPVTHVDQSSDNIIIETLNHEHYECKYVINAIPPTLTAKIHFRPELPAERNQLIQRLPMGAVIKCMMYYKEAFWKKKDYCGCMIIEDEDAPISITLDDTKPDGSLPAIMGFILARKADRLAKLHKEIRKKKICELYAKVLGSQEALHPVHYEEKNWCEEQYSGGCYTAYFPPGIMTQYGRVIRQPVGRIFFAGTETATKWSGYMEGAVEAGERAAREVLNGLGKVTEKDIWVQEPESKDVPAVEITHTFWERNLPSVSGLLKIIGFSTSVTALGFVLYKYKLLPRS

[5] = target: T6, Alpha-2A adrenergic receptor (Homo sapiens, UniProt P08913); type: functional, cell-based
T6 sequence (P08913 whole entry): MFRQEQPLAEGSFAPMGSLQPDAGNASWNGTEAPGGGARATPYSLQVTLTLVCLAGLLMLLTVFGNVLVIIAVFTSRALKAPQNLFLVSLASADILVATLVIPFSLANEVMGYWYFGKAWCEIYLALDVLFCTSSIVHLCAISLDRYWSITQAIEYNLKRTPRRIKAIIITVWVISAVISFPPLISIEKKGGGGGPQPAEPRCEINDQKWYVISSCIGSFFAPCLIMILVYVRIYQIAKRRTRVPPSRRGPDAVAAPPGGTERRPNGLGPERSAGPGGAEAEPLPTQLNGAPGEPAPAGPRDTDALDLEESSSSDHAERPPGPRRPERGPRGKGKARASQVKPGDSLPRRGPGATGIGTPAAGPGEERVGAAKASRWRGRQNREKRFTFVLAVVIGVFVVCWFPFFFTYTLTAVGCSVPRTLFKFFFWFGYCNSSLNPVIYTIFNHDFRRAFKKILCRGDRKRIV
Also: assay procedure not described here.

Chain of Bile salt export pump (O95342 whole entry): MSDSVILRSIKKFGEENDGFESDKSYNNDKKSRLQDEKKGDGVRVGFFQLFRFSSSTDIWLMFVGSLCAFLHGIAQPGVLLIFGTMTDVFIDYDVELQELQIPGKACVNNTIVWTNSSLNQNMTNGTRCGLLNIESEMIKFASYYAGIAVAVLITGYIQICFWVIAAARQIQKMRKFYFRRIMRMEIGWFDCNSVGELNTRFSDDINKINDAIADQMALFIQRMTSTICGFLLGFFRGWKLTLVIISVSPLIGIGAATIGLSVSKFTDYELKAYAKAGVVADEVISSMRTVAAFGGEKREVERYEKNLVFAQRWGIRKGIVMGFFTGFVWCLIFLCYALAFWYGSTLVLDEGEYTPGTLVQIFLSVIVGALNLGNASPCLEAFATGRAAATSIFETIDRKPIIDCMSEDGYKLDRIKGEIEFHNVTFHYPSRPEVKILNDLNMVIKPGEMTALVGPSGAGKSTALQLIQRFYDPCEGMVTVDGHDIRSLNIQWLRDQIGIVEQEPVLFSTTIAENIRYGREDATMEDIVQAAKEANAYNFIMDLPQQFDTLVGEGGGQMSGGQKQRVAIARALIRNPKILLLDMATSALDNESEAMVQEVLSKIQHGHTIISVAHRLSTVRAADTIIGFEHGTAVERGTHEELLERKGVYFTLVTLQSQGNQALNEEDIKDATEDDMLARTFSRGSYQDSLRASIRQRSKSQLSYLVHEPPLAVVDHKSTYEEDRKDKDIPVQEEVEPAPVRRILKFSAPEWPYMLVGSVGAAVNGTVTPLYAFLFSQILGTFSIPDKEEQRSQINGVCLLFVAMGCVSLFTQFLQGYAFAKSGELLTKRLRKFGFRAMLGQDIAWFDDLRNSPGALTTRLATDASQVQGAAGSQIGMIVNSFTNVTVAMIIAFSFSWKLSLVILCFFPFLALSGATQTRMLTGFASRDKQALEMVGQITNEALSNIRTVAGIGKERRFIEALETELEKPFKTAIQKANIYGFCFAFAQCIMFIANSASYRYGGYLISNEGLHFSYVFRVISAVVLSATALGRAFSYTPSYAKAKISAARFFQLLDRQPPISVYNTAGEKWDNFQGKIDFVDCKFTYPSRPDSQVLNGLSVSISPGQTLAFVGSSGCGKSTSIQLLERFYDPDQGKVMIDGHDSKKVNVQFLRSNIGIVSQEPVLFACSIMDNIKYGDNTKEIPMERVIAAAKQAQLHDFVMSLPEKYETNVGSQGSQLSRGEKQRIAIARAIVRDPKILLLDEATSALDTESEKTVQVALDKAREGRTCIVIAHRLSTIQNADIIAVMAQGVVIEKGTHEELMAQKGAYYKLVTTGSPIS

SMILES | AC50 (Bile salt export pump) | AC50 [1] | AC50 [2] | AC50 (Adenosine receptor A1) | AC50 [3] | AC50 (Adenosine receptor A3) | AC50 [4] | AC50 [5]
CCC1=C(C)CN(C(=O)NCCc2ccc(S(=O)(=O)NC(=O)N[C@H]3CC[C@H](C)CC3)cc2)C1=O [GLIMEPIRIDE] | 14 µM |  |  |  |  |  |  | 
C[N+]1(C)CCC(OC(=O)C(O)(c2ccccc2)C2CCCC2)C1 (centres undefined) [GLYCOPYRRONIUM BROMIDE] | > 300 µM | > 30 µM |  |  |  |  |  | 
CC(C)Nc1ncccn1 [ISAXONINE] | > 300 µM |  |  |  |  |  |  | 
OCCN1C[C@H](O)[C@@H](O)[C@H](O)[C@H]1CO [MIGLITOL] | > 300 µM |  |  |  |  |  |  | 
O=C(CCNNC(=O)c1ccncc1)NCc1ccccc1 [NIALAMIDE] | > 300 µM |  |  |  |  |  |  | 
CC(C)(C)NC[C@H](O)COc1ccccc1C1CCCC1 [PENBUTOLOL] | > 300 µM |  |  |  |  |  |  | 
CC(C)(S)[C@@H](N)C(=O)O [PENICILLAMINE] | > 300 µM |  |  |  |  |  |  | 
CCCN1C[C@H](CSC)C[C@@H]2c3cccc4[nH]cc(c34)C[C@H]21 [PERGOLIDE] | > 10 µM | > 30 µM | > 30 µM | > 30 µM | 14.9 µM | > 30 µM | > 30 µM | 
C1CCC(C(CC2CCCCN2)C2CCCCC2)CC1 (centres undefined) [PERHEXILINE] | 72 µM | > 30 µM | 4.9 µM | > 30 µM | 7.05 µM | 14.1 µM | > 30 µM | 
COc1cc(NC(C)CCCN)c2ncccc2c1 (centres undefined) [PRIMAQUINE] | 61 µM | > 30 µM |  | > 30 µM |  |  |  | 
C=C[C@H]1C[N@@]2CC[C@H]1C[C@H]2[C@H](O)c1ccnc2ccc(OC)cc12 [QUININE] | > 300 µM |  |  |  |  |  |  | 
Cc1c(C(=O)NN2CCCCC2)nn(-c2ccc(Cl)cc2Cl)c1-c1ccc(Cl)cc1 [RIMONABANT] | 11.6 µM | 16.9 µM |  | > 30 µM | 23 µM | 3.76 µM | > 30 µM | > 30 µM
CS(=O)(=O)c1ccc(C2=C(c3ccccc3)C(=O)OC2)cc1 [ROFECOXIB] |  | > 30 µM | > 30 µM | > 30 µM | > 10 µM | > 30 µM | > 10 µM | > 30 µM
Clc1ccc2nsnc2c1NC1=NCCN1 [TIZANIDINE] | > 300 µM | > 30 µM | > 30 µM | > 30 µM | > 10 µM | > 30 µM | > 10 µM | 
CCOC(=O)[C@H](CCc1ccccc1)N[C@@H](C)C(=O)N1[C@H](C(=O)O)C[C@H]2CCCC[C@@H]21 [TRANDOLAPRIL] | 220 µM |  |  |  |  |  |  | 
CCCCCCOc1nsnc1C1=CCCN(C)C1 [XANOMELINE] | > 300 µM |  |  |  |  |  |  | 
